According to ChEMBL document CHEMBL5620381, “Design, synthesis and antitubercular activity of novel N-(amino)piperazinyl benzothiazinones with improved safety” (Eur J Med Chem, 2023):
Values after ≈ are worked out from the molar mass of the structure shown.

Tests used:
[1] = system: Mycobacterium tuberculosis; experiment: Antitubercular activity against multidrug resistant Mycobacterium tuberculosis 16883 incubated for 8 days by MABA; type: functional; settings: Mycobacterium tuberculosis, 16883, 192 h; time 8 day
[2] = system: Mycobacterium tuberculosis; experiment: Antitubercular activity against multidrug resistant Mycobacterium tuberculosis 16995 incubated for 8 days by MABA; type: functional; settings: Mycobacterium tuberculosis, 16995, 192 h; time 8 day

Row | SMILES | MIC [1] | MIC [2]
1 | CN(CC1CCC(F)(F)CC1)N1CCN(c2nc(=O)c3cc(C(F)(F)F)cc([N+](=O)[O-])c3s2)CC1 | < 1 ng/mL | < 1 ng/mL
2 | CC1CCCCC1NN1CCN(c2nc(=O)c3cc(C(F)(F)F)cc([N+](=O)[O-])c3s2)CC1 (stereo not drawn) | < 1 ng/mL | < 1 ng/mL
3 | CN(C1CCC2(CCCCC2)CC1)N1CCN(c2nc(=O)c3cc(C(F)(F)F)cc([N+](=O)[O-])c3s2)CC1 | < 1 ng/mL | < 1 ng/mL
4 | CN(C1CCC(F)(F)CC1)N1CCN(c2nc(=O)c3cc(C(F)(F)F)cc([N+](=O)[O-])c3s2)CC1 | < 1 ng/mL | < 1 ng/mL
5 | CON=C1CCC(N(C)N2CCN(c3nc(=O)c4cc(C(F)(F)F)cc([N+](=O)[O-])c4s3)CC2)CC1 (stereo not drawn) | < 1 ng/mL | < 1 ng/mL
6 | CON=C1CCC(N(C)N2CCN(c3nc(=O)c4cc(C(F)(F)F)cc([N+](=O)[O-])c4s3)CC2(C)C)CC1 (stereo not drawn) | 125 ng/mL (≈ 231 nM) | 15.7 ng/mL (≈ 28.9 nM)
7 | CC1(C)CCC(NN2CCN(c3nc(=O)c4cc(C(F)(F)F)cc([N+](=O)[O-])c4s3)CC2)CC1 | < 1 ng/mL | < 1 ng/mL
8 | CN(C1CCC(C)(C)CC1)N1CCN(c2nc(=O)c3cc(C(F)(F)F)cc([N+](=O)[O-])c3s2)CC1(C)C | < 1 ng/mL | < 1 ng/mL
9 | CN(C1CCCCC1)N1CCN(c2nc(=O)c3cc(C(F)(F)F)cc([N+](=O)[O-])c3s2)CC1(C)C | < 1 ng/mL | < 1 ng/mL
10 | CN(C1CCC(C)(C)CC1)N1CCN(c2nc(=O)c3cc(C(F)(F)F)cc([N+](=O)[O-])c3s2)CC1 | < 1 ng/mL | < 1 ng/mL
11 | NNC(=O)c1ccncc1 [ISONIAZID] | > 20000 ng/mL | > 20000 ng/mL
12 | CC1CCC(N(C)N2CCN(c3nc(=O)c4cc(C(F)(F)F)cc([N+](=O)[O-])c4s3)CC2)CC1 (stereo not drawn) | < 1 ng/mL | < 1 ng/mL
13 | CC1CCC(C)C(N(C)N2CCN(c3nc(=O)c4cc(C(F)(F)F)cc([N+](=O)[O-])c4s3)CC2)C1 (stereo not drawn) | < 1 ng/mL | < 1 ng/mL
14 | CN(C1CCCCCCC1)N1CCN(c2nc(=O)c3cc(C(F)(F)F)cc([N+](=O)[O-])c3s2)CC1 | < 1 ng/mL | < 1 ng/mL
15 | O=c1nc(N2CCN(NC3CCC(F)(F)CC3)CC2)sc2c([N+](=O)[O-])cc(C(F)(F)F)cc12 | 3.15 ng/mL (≈ 6.38 nM) | 4 ng/mL (≈ 8.11 nM)
16 | CC1CCC(NN2CCN(c3nc(=O)c4cc(C(F)(F)F)cc([N+](=O)[O-])c4s3)CC2)CC1 (stereo not drawn) | < 1 ng/mL | < 1 ng/mL
17 | CO[C@H]1/C=C/O[C@@]2(C)Oc3c(C)c(O)c4c(O)c(c(/C=N/N5CCN(C)CC5)c(O)c4c3C2=O)NC(=O)/C(C)=C\C=C\[C@H](C)[C@H](O)[C@@H](C)[C@@H](O)[C@@H](C)[C@H](OC(C)=O)[C@@H]1C [RIFAMPIN] | > 20000 ng/mL | > 20000 ng/mL
18 | CN(C1C2CC3CC(C2)CC1C3)N1CCN(c2nc(=O)c3cc(C(F)(F)F)cc([N+](=O)[O-])c3s2)CC1 (stereo not drawn) | < 1 ng/mL | 1.5 ng/mL (≈ 2.86 nM)
19 | CCON=C1CCC(N(C)N2CCN(c3nc(=O)c4cc(C(F)(F)F)cc([N+](=O)[O-])c4s3)CC2)CC1 (stereo not drawn) | 11.4 ng/mL (≈ 21.7 nM) | 11.2 ng/mL (≈ 21.2 nM)
20 | CC1CN(c2nc(=O)c3cc(C(F)(F)F)cc([N+](=O)[O-])c3s2)CCN1N(C)C1CCC(C)(C)CC1 (stereo not drawn) | < 1 ng/mL | < 1 ng/mL
21 | CN(C1CCC(=NOC(C)(C)C)CC1)N1CCN(c2nc(=O)c3cc(C(F)(F)F)cc([N+](=O)[O-])c3s2)CC1 (stereo not drawn) | 5.25 ng/mL (≈ 9.43 nM) | 12.8 ng/mL (≈ 23 nM)
22 | O=c1nc(N2CCN(NC3CCCCC3)CC2)sc2c([N+](=O)[O-])cc(C(F)(F)F)cc12 | < 1 ng/mL | < 1 ng/mL
23 | O=c1nc(N2CCN(NC3CCCCCCC3)CC2)sc2c([N+](=O)[O-])cc(C(F)(F)F)cc12 | < 1 ng/mL | < 1 ng/mL
24 | CC1CCCCC1N(C)N1CCN(c2nc(=O)c3cc(C(F)(F)F)cc([N+](=O)[O-])c3s2)CC1 (stereo not drawn) | < 1 ng/mL | < 1 ng/mL
25 | CC1CC(N(C)N2CCN(c3nc(=O)c4cc(C(F)(F)F)cc([N+](=O)[O-])c4s3)CC2)CC(C)(C)C1 (stereo not drawn) | < 1 ng/mL | < 1 ng/mL
26 | O=c1nc(N2CCN(CC3CCCCC3)CC2)sc2c([N+](=O)[O-])cc(C(F)(F)F)cc12 [MACOZINONE] | < 1 ng/mL | < 1 ng/mL
27 | CC1CN(c2nc(=O)c3cc(C(F)(F)F)cc([N+](=O)[O-])c3s2)CCN1N(C)C1CCCCC1 (stereo not drawn) | < 1 ng/mL | < 1 ng/mL
28 | CN(C1CCCCC1)N1CCN(c2nc(=O)c3cc(C(F)(F)F)cc([N+](=O)[O-])c3s2)CC1 | < 1 ng/mL | < 1 ng/mL
29 | CON=C1CCC(N(C)N2CCN(c3nc(=O)c4cc(C(F)(F)F)cc([N+](=O)[O-])c4s3)CC2C)CC1 (stereo not drawn) | 6.65 ng/mL (≈ 12.6 nM) | 14.9 ng/mL (≈ 28.2 nM)
